Converted amounts (≈) assume the structure as drawn. Like-named read-outs stand apart in the source and are kept apart here.
Columns and labels:
Type in all cases: in vivo
Meloidogyne incognita = test: M. incognita miniaturized greenhouse assay on cucumber seedlings; settings: text reference to table 1D, 8 ppm and 1 ppm
Description: The test compound is dissolved in an acetone solution and added to water. A sprouted cucumber seedling is placed into a vial with dry sand and the water-chemical solution is added immediately. Twenty four hours later Meloidogyne incognita eggs are added to the vials and 10 to 12 days later the roots are evaluated for nematode galling.
Cucumber seeds are sprouted for 3 days in moist paper towels. Acceptable sprouts should be 3 to 4 cm long with several lateral roots just emerging. Stock solutions of chemistry are prepared in a mixture of acetone and Triton X100 (412 mg in 500 mL) to a final concentration of 5 mg/mL. The chemical stock solution is then added to 10 mL deionized water plus 0.015% Triton X100 and mixed thoroughly. This is enough to test each condition in triplicate. Ten mL dry sand is added to each vial. At this time the solubility of the chemistry is visually determined and recorded as either ppt (large precipitates) or cloudy (fine precipitates). Seedlings are planted by tilting the vial and laying the seedling in the correct orientation so that the cotyledons are just above the sand and then tilting back to cover the radicles with sand. 3.3 ml water/chemical mix is added to each vial and the vials placed in racks under fluorescent light banks. The vials are inoculated two days after planting by adding 500 vermiform M. incognita eggs to each vial in 50 uL of deionized or spring water. The vials are then kept under the fluorescent lamps at ambient room temperature and watered as needed with 1mL deionized water, usually twice during duration of test. Harvest of the cucumber plants is done 10 to 12 days after inoculation by washing sand off the roots. A root gall rating and visual phytotoxicity rating is assigned using the following scales: Gall rating scale (Gall: % root mass galled): 0=0-5%; 1=6-20%; 2=21-50%; and 3=51-100%. The average of the triplicate gall rating is then calculated: green=0.00-0.33 (no galls); yellow=0.67-1.33 (mild galling); orange=1.67-2.33 (moderate galling); red=2.67-3.00 (severe galling). Visual phytotoxicity scale is also assigned (Vis. tox; visual reduction in root mass compared to the control): rs1=mild stunting; rs2=moderate stunting; rs3=severe stunting.

[1] = system: Heterodera glycines (SCN); test: Seed treatment test of soybean cyst nematode on soybean; settings: Heterodera glycines, 672 h, read-out: percent cyst reduction relative to control blank treatment
Description: For a given concentration the chemical is dissolved in 500 ul of acetone and one gram of cucumber seed (RKN test) or soybean seed (SCN test) is added (e.g., 20 mg active ingredient in 500 ul acetone plus 1 gram of seed). The seed solutions are agitated until all seeds were thoroughly covered with the chemical solution. The acetone is then allowed to evaporate by air drying the seeds. The seeds are planted in 2-inch pots containing sandy soil and then the pots are inoculated with 1000 Meloidogyne incognita (RKN) or 1000 Heterodera glycines (SCN) eggs per pot three days after planting. Plants are rated for galling 14 days after egg inoculation for RKN or 28 days after egg inoculation for SCN.

root knot nematode = test: Pre-plant incorporated (PPI) greenhouse test of root knot nematode on cucumber plants; settings: 168 h, seven day pre-plant incorporated
Text: The PPI test examines the effect of pre-incorporation of compounds in soil and longer aging to simulate in furrow methods of nematicide application in the field. The PPI test exposes compounds to a higher volume of soil and drying which can result in more severe soil binding. Compounds are also aged for longer periods which can lead to more extensive biotic and abiotic degradation further limiting activity.
The chemically treated soil (sandy soil mix) for all treatment days (e.g., 7 days, 14 days, 21 days) treatments is potted into their appropriate pots. On the same day the 7 day treatment pots are seeded. One week later eggs are applied and 14 days after egg application the test is harvested. The 14 day treatments are planted 7 days after the first planting. The 14 day planting and 7 day inoculation happen on the same day. One week later the 14 day treatments are inoculated with eggs. These are harvested 14 days after the inoculation. The 21 day treatments are planted 14 days after the first planting. The 14 day inoculation and 21 day planting are done on the same day. One week later the 21 day plants are inoculated with eggs. The 7 day treatment is harvested the same day as the 21 day inoculation. Fourteen days after inoculation the 21 day plants are harvested.
For each compound a stock is prepared using 4 mg material in 4 ml of acetone. The soil is mixed by placing 80 ml of field soil and 320 ml of sand in a plastic bag and mixing well. The formulation for treatment is done by adding 2.13 ml (8 kg/ha rate), 1.06 ml (4 kg/ha rate) or 0.53 ml (2 kg/ha rate) to a vial and raising it with 10 ml in 0.05% X100. Soil is then treated by adding the entire 10 ml to the 400 ml of mix in the bag. The treated soil is immediately mixed well in the sealed bag to distribute the compound evenly. Approximately 95 ml is used to fill each 2-inch square pot up to the top with some soil compression and flattening. For each compound and for the control treatments 4 pots are filled. All pots are watered until moist but with no run-out through the bottom.
The PPI test simulates 8, 4 and 2 kg/ha rates incorporated 15 cm deep in the field and is equivalent to the 2, 1 and 0.5 kg/ha drench application rates in the standard 2-inch pot cucumber greenhouse assay.

C. elegans = test: Three day C. elegans well assay; settings: for EC50: Caenorhabditis elegans
Description: Various compounds were tested for nematicidal activity against C. elegans using contact assays in wells. The assays were performed as described below. The test compounds were solubilized in DMSO at 10 mg/ml to create 100× stock solutions. A dilution series was created by diluting the stock solution with DMSO. For each well assay 4 ul of the appropriate dilution is added to a well of a test plate. A 400 ul aliquot of bacterial stock (in M9 buffer with ampicillin and nystatin) are added to each well of the test plate. Worms are added and the test plate placed on a rotary shaker and held at 20° C. Worms are examined and scored at 4 hrs, 24 hrs, 48 hrs and 72 hours. L1 worms and L4 worms were used in the assay. L1 worms are prepared by plating eggs on a plate without a bacterial feeding layer. The eggs hatch and arrest at the L1 stage. This L1 stage population is then used to create a stock for the experiments. To create an L4 stage stock a small number of worms are taken from an overgrown and starved plate of worms and seeded on a plate with a bacterial feeder layer. A 25 ul aliquot of worms is added to each well in the assay.

[2] = 24 h, L1 larvae, one day of exposure, read-out: EC50 L1 1D
[3] = 48 h, L1 larvae, two days of exposure, read-out: EC50 L1 2D
[4] = 72 h, L1 larvae, three days of exposure, read-out: EC50 L1 3D
[5] = 72 h, L4 larvae, three days, effects on the second generation larvae, read-out: EC50 L4 3D (F1)
[6] = 48 h, L4 larvae, two days of exposure, read-out: EC50 L4 2D
[7] = L4 larvae, two days of exposure
[8] = 24 h, L4 larvae, one day of exposure, read-out: EC50 L4 1D

Row | Compound | EC50 (C. elegans; [2]) [µg/mL] | EC50 (C. elegans; [3]) [µg/mL] | EC50 (C. elegans; [4]) [µg/mL] | EC50 (C. elegans; [5]) [µg/mL] | EC50 L4 1D (C. elegans; L4 larvae, one day of exposure) | EC50 (C. elegans; [6]) [µg/mL] | further results
1 | c1ccc(-c2cc(-c3ccco3)n[nH]2)cc1 [3-(furan-2-yl)-5-phenyl-1H-pyrazole] |  |  |  |  |  |  | nematicidal activity (Meloidogyne incognita): at 8 ppm but not 1 ppm
2 | CS/C(C)=N\OC(=O)N(C)SN(C)C(=O)O/N=C(\C)SC [Thiodicarb, reference compound] |  |  |  |  |  |  | pest or weed control at 0.375 mg/g [1]: 6%; pest or weed control at 1.5 mg/g [1]: -23%
3 | FC(F)(F)c1ccc(-c2noc(-c3cccs3)n2)cc1 [compound 5213] |  |  |  |  |  |  | pest or weed control at 4000 g/ha (root knot nematode; 4 kg/ha, read-out: percent control (galling reduction), 4 kg/ha rate): 85%; pest or weed control at 8000 g/ha (root knot nematode; 8 ka/ha, read-out: percent control (galling reduction), 8 ka/ha rate): 98%
4 | Clc1cc(-c2noc(-c3cccs3)n2)ccc1Br [compound 5820] | 0.4 (≈ 1.17 µM) | 0.4 (≈ 1.17 µM) | 0.4 (≈ 1.17 µM) | 6.3 (≈ 18.4 µM) | no |  | 
5 | Clc1cc(-c2noc(-c3ccco3)n2)ccc1Br [compound 5821] | 0.4 (≈ 1.23 µM) | 0.4 (≈ 1.23 µM) | 0.4 (≈ 1.23 µM) | 0.4 (≈ 1.23 µM) | no |  | 
6 | Cc1cc(Cl)ccc1-c1noc(-c2cccs2)n1 [compound 5822] | 1.6 (≈ 5.78 µM) | 0.4 (≈ 1.45 µM) | 0.4 (≈ 1.45 µM) | 1.6 (≈ 5.78 µM) | no | 1.6 (≈ 5.78 µM) | 
7 | Cc1cc(Br)ccc1-c1noc(-c2cccs2)n1 [compound 5824] | 1.6 (≈ 4.98 µM) | 0.4 (≈ 1.25 µM) | 0.4 (≈ 1.25 µM) | 1.6 (≈ 4.98 µM) | no |  | EC50 L4 2D (C. elegans; [7]): no
8 | Clc1ccccc1-c1cnc(-c2cccs2)o1 [compound 5826] | 6.3 (≈ 24.1 µM) | 1.6 (≈ 6.11 µM) | 1.6 (≈ 6.11 µM) | 6.3 (≈ 24.1 µM) |  | 6.3 (≈ 24.1 µM) | EC50 (C. elegans; [8]): 6.3 µg/mL (≈ 24.1 µM)
9 | Brc1ccccc1-c1cnc(-c2cccs2)o1 [compound 5827] | 6.3 (≈ 20.6 µM) | 1.6 (≈ 5.23 µM) | 1.6 (≈ 5.23 µM) | 6.3 (≈ 20.6 µM) |  | 6.3 (≈ 20.6 µM) | EC50 (C. elegans; [8]): 25 µg/mL (≈ 81.7 µM)
10 | Clc1ccccc1-c1cnc(-c2ccco2)o1 [compound 5828] | 1.6 (≈ 6.51 µM) | 1.6 (≈ 6.51 µM) | 1.6 (≈ 6.51 µM) |  | no |  | EC50 L4 3D (C. elegans; L4 larvae, three days of exposure): no; EC50 L4 2D (C. elegans; [7]): no
11 | Cc1cc(F)ccc1-c1noc(-c2cccs2)n1 [compound 5845] |  | 1.6 (≈ 6.15 µM) | 0.4 (≈ 1.54 µM) | 25 (≈ 96 µM) | no | 25 (≈ 96 µM) | EC50 L1 1D (C. elegans; L1 larvae, one day of exposure): no
